Results published in patent publication US6753024B2, “Method for making a food preservative and for preserving food” (The United States of America as represented by the …, priority 2002, dated 2004).

Tested on: Micrococcus luteus ATCC 10240
Assay: Inhibition of test bacteria by nisin produced in fermented poi
Assay type: cell-based
Conditions: nisin produced by Lactococcus lactis subspecies lactis ATCC 11454 in taro; test bacteria known to cause food spoilage
Text: The nisin inhibits a test bacteria, Micrococcus luteus ATCC 10240, known to cause food spoilage. Thus, the Lactococcus lactis subspecies lactis ATCC 11454 grows in the taro and produces a bacteriocin therein.

Substance: nisin
- inhibition of test bacteria: inhibits
